Reference: ChEMBL document CHEMBL1148544, “Discovery, SAR, and X-ray structure of novel biaryl-based dipeptidyl peptidase IV inhibitors” (Bioorg Med Chem Lett, 2006)

Legend:
[1] = molecular target: Dipeptidyl peptidase 4 (Homo sapiens, UniProt P27487)
[2] = Permeability from apical to basolateral side of the Caco-2 cell membrane at 10 uM; assay type: ADME, cell-based; details: human
[3] = Permeability from basolateral to apical side of the Caco-2 cell membrane at 10 uM; assay type: ADME, cell-based; details: human
[4] = Stability in human liver microsomes at 1 uM; assay type: ADME, Microsome; details: read-out: Stability

Dipeptidyl peptidase 4, sequence (P27487 whole entry): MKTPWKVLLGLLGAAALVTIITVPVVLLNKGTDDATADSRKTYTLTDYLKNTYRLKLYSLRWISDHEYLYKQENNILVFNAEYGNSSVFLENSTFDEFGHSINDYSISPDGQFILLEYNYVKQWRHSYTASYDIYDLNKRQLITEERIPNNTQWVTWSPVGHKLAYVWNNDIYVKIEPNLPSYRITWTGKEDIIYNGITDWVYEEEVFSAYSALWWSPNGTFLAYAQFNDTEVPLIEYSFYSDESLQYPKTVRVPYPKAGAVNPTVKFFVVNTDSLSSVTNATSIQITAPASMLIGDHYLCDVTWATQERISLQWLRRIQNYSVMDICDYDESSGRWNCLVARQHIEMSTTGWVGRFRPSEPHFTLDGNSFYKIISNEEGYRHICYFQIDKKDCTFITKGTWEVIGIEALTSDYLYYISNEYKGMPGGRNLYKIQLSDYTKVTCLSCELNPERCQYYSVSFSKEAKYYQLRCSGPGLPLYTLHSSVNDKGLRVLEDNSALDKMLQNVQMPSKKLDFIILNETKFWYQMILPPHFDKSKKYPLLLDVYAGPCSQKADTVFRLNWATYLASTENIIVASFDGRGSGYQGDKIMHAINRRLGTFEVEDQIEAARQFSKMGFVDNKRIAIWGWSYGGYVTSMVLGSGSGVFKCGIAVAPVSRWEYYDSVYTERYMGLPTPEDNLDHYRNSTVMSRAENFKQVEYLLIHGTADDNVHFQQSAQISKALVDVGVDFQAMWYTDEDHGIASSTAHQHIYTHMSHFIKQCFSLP

Row | SMILES | Ki [1] [µM] | Papp A→B at 10 µM [2] [×10⁻⁶ cm/s] | Papp B→A at 10 µM [3] [×10⁻⁶ cm/s] | remaining at 1 µM [4] [%]
1 | N[C@@H](Cc1cccc2ccccc12)C(=O)N1CCSC1 | > 12.8 | – | – | –
2 | N#C[C@@H]1CCCN1C(=O)[C@@H](N)Cc1ccc(-c2ccc(F)cc2)cc1 | – | 7.21 | 4.45 | 6.7
3 | N#C[C@@H]1CCCN1C(=O)[C@@H](N)Cc1ccc(-c2ccc(F)cc2F)cc1 | – | 4.93 | 4.93 | 73.9
4 | N[C@@H](Cc1ccc(-c2ccccc2)cc1)C(=O)N1CCC[C@H]1CO | > 12.8 | – | – | –
5 | N[C@@H](Cc1ccc(-c2ccc(F)cc2)cc1)C(=O)N1CCSC1 | – | 16.8 | 5.61 | 78.5

Other lines, results leading:

Row | Ki [1] [µM] | Papp A→B at 10 µM [2] [×10⁻⁶ cm/s] | Papp B→A at 10 µM [3] [×10⁻⁶ cm/s] | remaining at 1 µM [4] [%] | SMILES
6 | > 12.8 | – | – | – | N[C@@H](Cc1c[nH]c2ccccc12)C(=O)N1CCSC1
7 | – | 4.56 | 1.5 | 62 | N[C@@H](Cc1ccc(-c2ccccc2)cc1)C(=O)N1CCSC1
8 | – | 2.66 | 3.82 | 52.3 | N#C[C@@H]1CCCN1C(=O)[C@@H](N)Cc1ccc(-c2ccccc2)cc1
9 | > 12.8 | – | – | – | CC1(C)OCCN1C(=O)[C@@H](N)Cc1ccc(-c2ccccc2)cc1
10 | > 12.8 | – | – | – | N[C@@H](Cc1ccc(-c2ccccc2)cc1)C(=O)N1CCC[C@H]1COCc1ccccc1
